Measured values taken from patent publication US12336980B2, “Dosing regimen for a selective S1P1 receptor agonist” (Vanda Pharmaceuticals Inc., priority 2014, dated 2025).

Legend:
Type in all cases: in vivo, human
[1] = system: circulating total lymphocyte count; assay: Total lymphocyte count by hemocytometry; details: for total lymphocyte count, mean percentage change from baseline (±SD): Day 3; for total lymphocyte count, decrease from baseline: Day 6
Description: The enrolled subjects came to the study center for each treatment period on Day −2 and participated in a run-in (all study procedures performed without study drug administration) on Day −1. On Day 1, subjects were randomized to one of the two possible sequences of the two up-titration regimens A and B (ratio 1:1). On Day 1, all subjects received placebo; the first study drug administration (or its matching placebo) occurred on Day 2. Regimen A consisted of the novel up-titration regimen: ponesimod was administered once daily (o.d.) orally at a dose of 2 mg on Day 2 and Day 3, 3 mg on Day 4 and Day 5, 4 mg on Day 6 and Day 7, 5 mg on Day 8, 6 mg on Day 9, 7 mg on Day 10, 8 mg on Day 11, 9 mg on Day 12, 10 mg on Day 13 and Day 14, and 20 mg on Day 15. The reference regimen (regimen B) was based on previous studies (Olsson T. et al., Oral ponesimod in relapsing-remitting multiple sclerosis: a randomised phase II trial. J Neurol Neurosurg Psychiatry. 2014; 85 (11): 1198-1208; and Vaclavkova A. et al., Oral ponesimod in patients with chronic plaque psoriasis: a randomised, double-blind, placebo-controlled phase 2 trial. Lancet. 2014; 384 (9959): 2036-2045) and consisted of an o.d. oral administration of ponesimod at a dose of 10 mg for 7 days (i.e., from Day 2 to Day 8) and 20 mg on Day 9. From Day 10 to Day 15 subjects received o.d. the matching placebo. In the placebo group (1:1 sex ratio), subjects received placebo from Day 1 to Day 15. All treatments were administered at the same time in the morning (fasted condition) with approximately 240 mL of water. Blood samples of about 3 mL were collected in ethylene di-amine tetra acetic acid tubes at pre-dose and 3 h after study drug administration from Day 1 to Day 15 in each treatment period. After centrifugation, plasma was transferred into a polypropylene tube and stored at −21° C. (±5° C.) pending analysis. Plasma concentrations of ponesimod were determined using a validated liquid chromatography coupled to tandem mass spectrometry assay with a lower limit of quantification of 1 ng/mL (Brossard P. et al., Pharmacokinetics and pharmacodynamics of ponesimod, a selective S1 P1 receptor modulator, in the first-in-human study. British journal of clinical pharmacology. 2013; 76 (6): 888-896). Trough samples were taken on Day −1, Day 3, Day 6, Day 9, Day 12, and Day 15 of each treatment period and at EOFP and EOS to assess total lymphocyte count by hemocytometry. Cardiodynamic and pharmacodynamic data are expressed as mean±SD. Repeated measure one-way ANOVAs followed by Tukey's multiple-comparisons tests were used to perform inter-group (i.e., placebo vs. regimen A vs. regimen B) comparisons. Student's t-tests were employed to perform intra-group (baseline vs. treatment) comparisons. Differences were considered to be statistically significant at p <0.05. SAS® version 9.2 (SAS Institute, Cary, NC, USA) was used for the statistical analysis and descriptive statistics of clinical data.

healthy subjects = assay: Vital signs, supine blood pressure; details: first administration, mean±SD
Description: The enrolled subjects came to the study center for each treatment period on Day −2 and participated in a run-in (all study procedures performed without study drug administration) on Day −1. On Day 1, subjects were randomized to one of the two possible sequences of the two up-titration regimens A and B (ratio 1:1). On Day 1, all subjects received placebo; the first study drug administration (or its matching placebo) occurred on Day 2. Regimen A consisted of the novel up-titration regimen: ponesimod was administered once daily (o.d.) orally at a dose of 2 mg on Day 2 and Day 3, 3 mg on Day 4 and Day 5, 4 mg on Day 6 and Day 7, 5 mg on Day 8, 6 mg on Day 9, 7 mg on Day 10, 8 mg on Day 11, 9 mg on Day 12, 10 mg on Day 13 and Day 14, and 20 mg on Day 15. The reference regimen (regimen B) was based on previous studies (Olsson T. et al., Oral ponesimod in relapsing-remitting multiple sclerosis: a randomised phase II trial. J Neurol Neurosurg Psychiatry. 2014; 85 (11): 1198-1208; and Vaclavkova A. et al., Oral ponesimod in patients with chronic plaque psoriasis: a randomised, double-blind, placebo-controlled phase 2 trial. Lancet. 2014; 384 (9959): 2036-2045) and consisted of an o.d. oral administration of ponesimod at a dose of 10 mg for 7 days (i.e., from Day 2 to Day 8) and 20 mg on Day 9. From Day 10 to Day 15 subjects received o.d. the matching placebo. In the placebo group (1:1 sex ratio), subjects received placebo from Day 1 to Day 15. All treatments were administered at the same time in the morning (fasted condition) with approximately 240 mL of water.
Safety and tolerability were evaluated by monitoring adverse events (AEs), vital signs measurements (supine blood pressure), pulmonary function tests (PFTs; i.e., FEV1 and FVC), clinical laboratory, physical, and neurological examinations. Recording of blood pressure was performed at the same time-points as 12-lead ECG.

heart rate in humans = assay: Heart rate reduction in humans after administration (background finding); details: transient heart rate reduction

In the case of CCC/N=C1\S/C(=C\c2ccc(OC[C@H](O)CO)c(Cl)c2)C(=O)N1c1ccccc1C [ponesimod, (R)-5-[3-chloro-4-(2,3-dihydroxy-propoxy)-benz[Z]ylidene]-2-([Z]-propylimino)-3-o-tolyl-thiazolidin-4-one], the “recovery of individual total lymphocyte count” value ([1]; at EOFP and EOS, normal range i.e. 80% of baseline) is reported as “returned to within the normal range”, the “total lymphocyte count, mean percentage change from baseline (±SD)” value ([1]; regimen A) is reported as −11.6±10.2% and the “total lymphocyte count, decrease from baseline” value ([1]; regimen A) is reported as −15.0±14.4%. For the same compound, the “total lymphocyte count, decrease following the last dose of 10 mg” value ([1]; regimen A, Day 15 before administration of the dose of 20 mg) was −50.8±12.1%, the “total lymphocyte count, mean percentage change from baseline (±SD)” value ([1]; regimen B) was −28.9±12.2% and the “total lymphocyte count, decrease from baseline” value ([1]; regimen B) was −46.5±12.3%. The “total lymphocyte count, decrease following the last dose of 10 mg” value ([1]; regimen B, Day 9 before administration of the dose of 20 mg) was −52.3±11.0%, the “decrease in DBP” value (healthy subjects; regimen A) was −7±5.3 mmHg and the “decrease in SBP” value (healthy subjects; regimen A) was −4±4.4 mmHg. The “decrease in DBP” value (healthy subjects; regimen B) was −10±4.4 mmHg, the “decrease in SBP” value (healthy subjects; regimen B) was −5±7.7 mmHg and the “time of maximal heart rate reducing effects after administration” value (heart rate in humans) was 1 to 3 h.
